Data on one compound can be found in US6281354A, “Analogs of duocarmycin and cc-1065” (The Scripps Research Institute, priority 1999, dated 2001).

Data set [1] has as its system w794 DNA. Conditions: pH 7.5, earlier studies; cited from earlier work.
In data set [2] the test system is w794 DNA. Kind of data set: Rate of DNA alkylation at the single w794 high affinity site: pH and buffer dependence. In kind it is biochemical, SV40. Conditions: for change in rate of DNA alkylation over 2 pH units: 10 mM phosphate buffer, pH 6.0-8.1; for pH dependence of the rate of DNA alkylation: pH 7-8. How it is done: Rate of DNA Alkylation: pH Dependence. […] Because this was conducted using w794 DNA additionally containing >7000 base-pairs and multiple binding sites within the unlabeled portion of the DNA, the comparisons were conducted at concentrations that provide saturated binding and restrict the kinetic analysis to the pseudo-first order rate constant for alkylation. […] The relative lack of dependence on the acid concentration (pH) especially in the most relevant pH range of 7-8 in conjunction with the observations made in the accompanying paper has led us to propose an alternative source of reaction catalysis.
Relative Rates of DNA Alkylation for (+)-1 at pH 6-8. Eppendorf tubes containing 5' end-labeled w794 DNA (9 μL) in phosphate buffer (10 mM) at pH 6.0, 6.6, 7.1, 7.6, and 8.1 were prepared. The solutions at each pH were treated with (+)-duocarmycin SA (1μL, 10^-6 M in DMSO), mixed and incubated at 25° C. for 0.5, 1.0, 1.5, 2.0 and 3.0 h. […] The reactions were stopped at each time interval by EtOH precipitation of the DNA. The alkylated DNA was resuspended in TE buffer (10 μL, pH 7.5) and heated at 100° C. for 30 min follwed by PAGE and autoradiography as detailed above.
Since these observations sharply contrast the proposed important role of acid catalysis for activation of the agents toward DNA alkylation which has served as the basis for one prominent proposal for the origin of the DNA alkylation selectivity, we have examined in detail the pH dependence of the rate of DNA alkylation for duocarmycin SA (1) and CCBI-TMI over a physiologically relevant range. […] Between pH 6-7, the slope of the plot of pH versus log κobs was 0.2-0.3, far lower than that of 1.0 required of a first-order dependence on acid concentration.

Another data set deals with DNA. To be noted: cited from earlier work.
Data set [3] is described as follows: In vitro cytotoxic activity.
For data set [4], the system named is duplex DNA (w794, w836, c988, c820, c1346). In kind it is biochemical, SV40.
A short description of data set [5]: Calculated rate constant for acid-catalyzed solvolysis. The class given is physicochemical.
In a further data set the test system is w836 DNA. Kind of data set: DNA alkylation sites and relative rates within the six-base A sequence (5'-AAAAAA) of w836 DNA. The class given is biochemical, SV40. Conditions: 5'-AAAAAA.
For data set [6], the system named is w794 DNA. Nature of the data set: Relative rates of DNA alkylation for (+)-1, 53 and 54 at the w794 5'-AATTA site. The class given is biochemical, SV40. How it is done: Modifications in the Trimethoxyindole Subunit: Role of the Methoxy Substituents. DNA alkylation by the natural enantiomers of 53-56 were compared with that of 1 in w794 DNA.
Relative Rates of DNA Alkylation for (+)-1, 53, and 54. Following the procedure detailed above, Eppendorf tubes containing 5' end-labeled w794 DNA (9 μL) in TE buffer (pH 7.5) were treated with (+)-duocarmnycin SA, 53, or 54 (1 μL, 10^-5 M in DMSO). […] The solutions were mixed and incubated at 25° C. for 1, 3, 6, 12, 24, 48, and 72 h, respectively. Subsequent isolation of the alkylated DNA by EtOH precipitation, resuspension in TE buffer (10 μL, pH 7.5), thermolysis (30 min, 100° C.), concurrent PAGE, and autoradiography were conducted as detailed above. The relative rate for the alkylation at the 5'-AATTA site was derived from the slopes of the plots of percent integrated optical density (IOD) of the high affinity alkylation site cleavage bands versus time.

Where [7] appears, read: 10^-5 M, 25° C., 1-72 h, 5'-d(AATTA).

In the case of `COC(=O)c1cc2c([nH]1)C(=O)C=C1N(C(=O)c3cc4cc(OC)c(OC)c(OC)c4[nH]3)CC3CC123` (stereo not shown) [duocarmycin SA], in the data set with w794 DNA [1], the “relative rate of DNA alkylation at w794 high affinity site” value is listed as 0.9 ×. Further, the “concentration dependence of the rate of DNA alkylation (pH study)” value with w794 DNA [2] (10^-4 -10^-6 M) was “independent of agent concentration”. Besides, the “change in rate of DNA alkylation over 2 pH units” value is listed as below 2 × with w794 DNA [2] (10^-6 M, 25° C.) and below 3 × with w794 DNA [2] (10^-6 M, 25° C., listed as (+)-duocarmycin SA (1)). In the data set with w794 DNA [2] (10^-6 M, 25° C., pH 7.1, 5'-AATTA), the “pseudo-first order rate constant for DNA alkylation, pH 7.1” value is 1.69×10^-4 s^-1. The “pseudo first-order rate constant for DNA alkylation, pH 7.6” value with w794 DNA [2] (10^-6 M, 25° C., pH 7.6, 10 mM phosphate) was 1.58×10^-4 s^-1. Besides, the “slope of plot of pH versus log κobs” value in the data set with w794 DNA [2] (pH 6-7) is given as 0.2-0.3. The “pH dependence of the rate of DNA alkylation” value in the data set with w794 DNA [2] is “essentially no dependence”; in the data set with w794 DNA [2] (listed as (+)-duocarmycin SA) it was “the rate dependence on pH essentially disappeared”; with w794 DNA [2] (listed as (+)-duocarmycin SA (1)) it was “the rate dependence on pH essentially disappeared”. Further, the “t1/2 of DNA alkylation” value with w794 DNA [2] (pH 7 / 7.1) is 1.1 h. For the same compound, the “t1/2 of DNA alkylation, pH 7.6” value with w794 DNA [2] (pH 7.6) was found to be 1.2 h. Besides, the “adenine N3 adduct formation (addition to least substituted cyclopropane carbon)” value in the data set with DNA was 95-100%. Besides, the “cytotoxic / antitumor activity in words” value in data set [3] is listed as “biologically the most potent”. Besides, in data set [4], the “AT-rich adenine N3 alkylation selectivity (size of site)” value is 3.5 base-pair. For the same compound, in data set [5] (pH 7), the “calculated rate constant for acid-catalyzed solvolysis, pH 7” value was 1.08×10^-10 s^-1. Besides, the “calculated first-order rate constant for acid-catalyzed solvolysis, pH 7.6” value in data set [5] (pH 7.6) is listed as 2.7×10^-11 s^-1. Besides, in the data set with w836 DNA, the “AT-rich binding site covered in w836 DNA” value was found to be 3.5 base-pair. Moreover, in the data set with w836 DNA, the “alkylated adenines within six-base A-rich sequence of w836 DNA” value was “each of the four 3' adenines”. The “concentration dependence of the rate of DNA alkylation” value in the data set on w794 DNA [6] (10^-4 -10^-6 M) is “independent of agent concentration”. For the same compound, in the data set on w794 DNA [6] (setting [7]), the “relative rate of DNA alkylation κrel versus 53” value is 18-33. Moreover, the “relative rate of DNA alkylation κrel, 1 versus 54” value in the data set on w794 DNA [6] (setting [7]) is recorded as 1.3-2.3.
